Patent publication US20260015315A1, “AMINO LIPID COMPOUND, PREPARATION METHOD THEREFOR, COMPOSITION THEREOF AND APPLICATION THEREOF” (SHENZHEN SHENXIN BIOTECHNOLOGY CO., LTD., priority 2022, published 2026)

Legend:
[1] = test system: immune cell populations in different tissues and organs; experiment: Delivery efficiency of eGFP mRNA encapsulating LNP to immune cell populations in different tissues and organs (flow cytometry); format: in vivo; details: eGFP mRNA-LNP intravenous, C57BL/6 mice, 6 hours; spleen, axillary lymph nodes, peripheral blood, bone marrow, lungs, liver; FIGS. 1A to 1F
Procedure: C57BL/6 mice (3 mice per group) were intravenously injected with eGFP mRNA encapsulating LNP. After 6 hours, the mice were dissected, and the spleen, axillary lymph nodes, peripheral blood, bone marrow, lungs and liver were collected to prepare single-cell suspensions of various tissues and organs. After blocking with Fe blocking antibodies and surface staining with fluorescent-labeled antibodies, sample analysis was conducted by flow cytometry to analyze the expression levels of eGFP in various immune cell populations to confirm the delivery efficiency of lipid nanoparticles comprising different amino lipid compounds to immune cell populations in different tissues and organs.

[2] = test system: BALB/c mice; experiment: In vivo delivery of lipid nanoparticle encapsulating luciferase mRNA (Fluc mRNA), IVIS imaging; details: for Total flux (fluorescence expression intensity): Fluc mRNA-LNP (amino lipid:DSPC:CHO-HP:PEG2000-DMG 48:10:40.5:1.5), whole body; for Total flux (fluorescence expression intensity) / Spleen (fluorescence expression intensity): 75 μL tail vein IV, female BALB/c mice, IVIS 6 hours after injection; for Spleen (fluorescence expression intensity) / (Spleen/Total Flux) * 100% / Multiple of spleen delivery/total delivery (Spleen/Total Flux) to Compound 118: Fluc mRNA-LNP; for (Spleen/Total Flux) * 100% / Multiple of spleen delivery/total delivery (Spleen/Total Flux) to Compound 118: tail vein IV, BALB/c mice, 6 hours; for Multiple of spleen delivery/total delivery (Spleen/Total Flux) to Compound 118: relative to Compound 118
Procedure: The amino lipid compound of the present disclosure, a helper lipid, a structural lipid, and a PEG-lipid were separately dissolved in absolute ethanol to prepare respective solutions at concentrations of 20 mg/mL, 10 mg/mL, 20 mg/mL, and 25 mg/mL, respectively. The above four solutions were pipetted at a molar ratio of the amino lipid compound: DSPC:CHO-HP:PEG2000-DMG of 48:10:40.5:1.5, and mixed well to prepare an alcohol phase.
(2) Encapsulation: The water phase and the alcohol phase were injected into a microfluidic chip at a flow rate of water phase:alcohol phase=12 mL/min: 4 mL/min by using a microfluidic preparation instrument (MPE-L2), and encapsulation was carried out at a flow rate of water phase:alcohol phase=9 mL/min: 3 mL/min to obtain mRNA-encapsulating lipid nanoparticle (mRNA-LNP).
(3) Dialysis: The product of step (2) was loaded in a dialysis bag and placed in a Tris Buffer-8% sucrose solution for replacement to remove ingredients such as residual ethanol, unassembled lipids. Dialysis was conducted for 2 h with magnetic stirring at room temperature and under protection from light (dialysate was replaced every 1 hour).
(4) The product of step (3) was sterilized by passing through a 0.22 μm microporous membrane, and then packaged.
Lipid nanoparticle formulations encapsulating Flue mRNA were prepared, with a concentration of Flue mRNA of 0.2 μg/μL, a mass ratio of Flue mRNA to Lipid of 1:10, a particle size of 80-130 nm, and a encapsulation efficiency of 80% or higher.
• Animal preparation: Female BALB/c mice of 6-8 weeks old were selected and raised in an SPF grade breeding room. Animal testing was conducted in strict accordance with the guidelines of national health institutions and animal ethics requirements.
In vivo Delivery: prior to injection of the test LNP formulations, the LNP formulations were gently and repeatedly inverted to thoroughly mix the formulation samples. A corresponding amount of the formulation samples were aspirated with a 1 ml insulin syringe, and the LNP formulations were injected by tail vein injection (IV), with 3 mice in duplicate per formulation. Each mouse was injected with 75 μL of the luciferase mRNA (Flue mRNA)-encapsulating lipid nanoparticle formulation prepared in Experimental Example 1.
6 hours after injection of LNP formulations, mice were injected with 200 μL D-Luciferin luciferase developing substrate (Catalog No. 122799; Manufacturer: Perkin Elmer). After the substrate was injected, the mice were anesthetized by injection of 200 μl of 2.5% avertin, and the injection time of luciferase developing substrate was recorded.
The fluorescence expression intensity induced by the lipid nanoparticle encapsulating luciferase mRNA (Flue mRNA) with a representative amino lipid compound is shown in Table 4, with the amino lipid compound 118 as a control.

Row | SMILES | Delivery preference to immune cells (eGFP expression in immune cell populations) [1] | Total flux (fluorescence expression intensity) [2] | Spleen (fluorescence expression intensity) [2] | (Spleen/Total Flux) * 100% [2] [%] | Multiple of spleen delivery/total delivery (Spleen/Total Flux) to Compound 118 [2]
1 | CCCCCCOCCCC(=O)N(CCCN(C)C)C(CCCCCCCCC(=O)OC(CCCCCC)CCCCCC)CCCCCCCCC(=O)OC(CCCCCC)CCCCCC [compound 131] | clear delivery preference to immune cells in various tissues and organs | 3.26E+07 | 6.59E+06 | 20.21 | 17.73
2 | CCCCCCCCOCCCC(=O)N(CCCN(C)C)C(CCCCCCCCC(=O)OC(CCCCCC)CCCCCC)CCCCCCCCC(=O)OC(CCCCCC)CCCCCC [compound 133] | clear delivery preference to immune cells in various tissues and organs | 3.58E+07 | 1.25E+07 | 34.92 | 30.63
